± gives the expanded uncertainty stated by the source.
Assays:
[1] = Gas, isochoric method
[2] = xn = mol fraction of the nth substance listed; conditions: Gas, isochoric method, x1 = 0.6992

[HH] [hydrogen]
[1]
Conditions | mass density [kg/m3]
722.4 K, 20262 kPa | 6.45 ± 0.059
733.6 K, 20559 kPa | 6.449 ± 0.059
743.1 K, 20811 kPa | 6.447 ± 0.059
753.6 K, 21086 kPa | 6.447 ± 0.054
763.9 K, 21370 kPa | 6.445 ± 0.057
773.4 K, 21625 kPa | 6.445 ± 0.058
784.3 K, 21917 kPa | 6.444 ± 0.058
792.8 K, 22153 kPa | 6.443 ± 0.058
803.8 K, 22451 kPa | 6.442 ± 0.058
812.9 K, 22702 kPa | 6.442 ± 0.056
822.2 K, 22963 kPa | 6.441 ± 0.056
834.3 K, 23222 kPa | 6.422 ± 0.054
844.3 K, 23469 kPa | 6.412 ± 0.056
854.7 K, 23640 kPa | 6.381 ± 0.058
863.3 K, 23818 kPa | 6.366 ± 0.057
874.1 K, 24069 kPa | 6.354 ± 0.053
883.3 K, 24272 kPa | 6.344 ± 0.054
892.3 K, 24413 kPa | 6.337 ± 0.054
904.5 K, 24668 kPa | 6.324 ± 0.056
914.1 K, 24899 kPa | 6.319 ± 0.054
924 K, 25112 kPa | 6.313 ± 0.058

[HH] [hydrogen] + O=C=O
[2]
Conditions | mass density [kg/m3]
673.4 K, 20652 kPa | 50.77 ± 0.47
683.6 K, 20986 kPa | 50.78 ± 0.43
693.5 K, 21304 kPa | 50.79 ± 0.48
703.3 K, 21638 kPa | 50.85 ± 0.48
713.9 K, 21981 kPa | 50.87 ± 0.47
723.3 K, 22282 kPa | 50.87 ± 0.44
733.9 K, 22610 kPa | 50.86 ± 0.49
743.9 K, 22909 kPa | 50.82 ± 0.47
753.6 K, 23216 kPa | 50.82 ± 0.47

N#N [nitrogen]
[1]
Conditions | mass density [kg/m3]
727.3 K, 20352 kPa | 86.58 ± 0.74
805.8 K, 22603 kPa | 86.28 ± 0.73
874.6 K, 24580 kPa | 86.14 ± 0.72
927.1 K, 26090 kPa | 86.03 ± 0.7

O [water]
[1]
Conditions | mass density [kg/m3]
724.1 K, 15981 kPa | 58.3 ± 0.77
773.1 K, 17804 kPa | 58.58 ± 0.71
826.1 K, 19727 kPa | 58.95 ± 0.72
877.1 K, 21161 kPa | 58.02 ± 1.2
927.1 K, 22542 kPa | 57.4 ± 0.74

— the NIST ThermoML archive (doi:10.1021/acs.jced.9b00399)
